Results published in article PMC12274739, “Differential substrate degradation by super-degron: EGFP in wild-type mouse cells, PD-1 requires CRBN humanization” (iScience, 2025).
Where “and” joins values, the source holds several entries; their conditions need not be identical. Equal values may be shown once. Read-outs that look alike come from different tables or passages of the source.

Tests used:
[1] = test system: EGFP-SD; assay type: cell-based, mouse; settings: for Plateau, EGFP-SD degradation: control = 1; for K, EGFP-SD degradation: one phase decay
[2] = test system: MC-38 adenocarcinoma cells; experiment: Growth of inoculated MC-38 adenocarcinoma cells in mice; assay type: in vivo, mouse
Description: Data are represented as mean ± standard error (SEM). The same experiment was repeated twice to confirm reproducibility. p-values were determined by two-way ANOVA multiple comparisons. ∗∗∗∗p < 0.0001 and ∗p = 0.0267. […] Data are represented as mean ± SEM. The same experiment was repeated twice to confirm reproducibility. p-values were determined by two-way ANOVA multiple comparisons. ∗∗∗∗p < 0.0001, ∗∗∗p = 0.0005, ∗∗p = 0.0067. […] Ratio of PD-1 positive cells and mean fluorescence intensity (MFI) of PD-1 (D), TIM-3 (E), and LAG-3 (F) on CD8^+ and CD4^+ T cells isolated from tumor microenvironments 9 days after the initiation of treatment are shown. Fluorescence intensity of each molecule was measured by flow cytometry, and the geometric MIFs of marker-positive cells were calculated. The data in two experiments were compiled. p-values were determined by the Brown-Forsythe and Welch ANOVA test. Different letters indicate statistically significant differences between groups (p < 0.05). […]
Next, the effects of SD-induced PD-1 reduction were compared with those of anti-PD-1 antibody treatment in vivo. […] CD3^+ T cells infiltrating the MC-38 microenvironment were analyzed on day 9 of treatment before the MC-38 tumor masses had shrunk with treatment and no longer provided sufficient T cells for FACS analyses. […]

[3] = test system: EGFP-SD (C-terminal SD); assay type: cell-based, mouse; settings: Crbn+/I391V mESCs (h/mCRBN), transient, 24 h
[4] = target: EGFP-SD (C-terminal SD) (Aequorea victoria, UniProt P42212, F64L/H231L/S65T); assay type: cell-based, mouse; settings: transient, 24 h; for DC50: read-out: DC50, EGFP-SD
[5] = test system: wild-type mESCs; experiment: Proteome assay in wild-type mESCs with IBR; assay type: cell-based, mouse
Excerpt: Only SD was able to efficiently degrade EGFP even in the wild-type mouse cell lines. IKZF1/3 and several neo-substrates for CRBN were degraded in human cells but not in mouse cells, most likely because of the different amino acids in CRBN. However, the combination of SD and IBR or MZG degraded target proteins in both mouse and human cells. […] These 17 proteins are suspected to be novel substrates (data not shown). […] Moreover, general thalidomide analogs and CRBN have no neo-substrates in mouse cell lines.[25]

[6] = target: EGFP-ZFP91 (UniProt P42212+Q8C7D2, F64L/H231L/INS1V/S65T); assay type: cell-based, mouse; settings: read-out: DC50, EGFP-ZFP91, stable
[7] = target: SD-EGFP (Mus musculus, UniProt P42212+Q8C7D2, F64L/H231L/INS1V/S65T, form not given); assay type: cell-based
[8] = cited from earlier work
[9] = test system: mouse PD-1-mCherry-Sall4 tag; assay type: cell-based, human; settings: Jurkat, 24 h
[10] = mouse wild-type cell lines, independent of IBR concentration

Sequence of EGFP-ZFP91 (Q8C7D2 whole entry, looked up, stated change not applied, other chains not shown): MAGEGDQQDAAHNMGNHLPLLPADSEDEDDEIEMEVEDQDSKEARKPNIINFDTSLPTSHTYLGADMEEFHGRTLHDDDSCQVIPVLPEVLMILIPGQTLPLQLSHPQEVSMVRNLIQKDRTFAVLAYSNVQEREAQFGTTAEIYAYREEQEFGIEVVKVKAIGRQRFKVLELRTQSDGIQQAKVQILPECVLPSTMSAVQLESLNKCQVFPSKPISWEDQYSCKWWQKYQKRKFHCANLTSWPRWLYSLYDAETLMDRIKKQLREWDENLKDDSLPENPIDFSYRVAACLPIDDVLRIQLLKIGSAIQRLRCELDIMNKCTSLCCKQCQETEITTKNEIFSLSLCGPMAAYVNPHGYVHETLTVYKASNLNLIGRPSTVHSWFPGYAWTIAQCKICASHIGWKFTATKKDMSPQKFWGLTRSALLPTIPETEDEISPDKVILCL

Question: For `O=C1CC[C@H](N2Cc3c(OCc4ccc(CN5CCOCC5)cc4)cccc3C2=O)C(=O)N1` [IBR, iberdomide], which “Tau, EGFP-SD degradation” value ([1]; EL4, 0.01 µM IBR) is on record?
Answer: 0.5057

Question: What about the “Plateau, EGFP-SD degradation” value ([1]; EL4, 0.01 µM IBR) of the same compound?
Answer: 0.106 and 0.11

Question: And the “K, EGFP-SD degradation” value ([1]; EL4, 0.01 µM IBR)?
Answer: 1.978

Question: And the “Tau, EGFP-SD degradation” value ([1]; EL4, 0.1 µM IBR)?
Answer: 0.4779

Question: What about the “Plateau, EGFP-SD degradation” value ([1]; EL4, 0.1 µM IBR) of the same compound?
Answer: 0.0948

Question: What about the “K, EGFP-SD degradation” value ([1]; EL4, 0.1 µM IBR) of the same compound?
Answer: 2.093

Question: What about the “Tau, EGFP-SD degradation” value ([1]; EL4, 1 µM IBR) of the same compound?
Answer: 0.4762

Question: And the “Plateau, EGFP-SD degradation” value ([1]; EL4, 1 µM IBR)?
Answer: 0.09035

Question: What about the “K, EGFP-SD degradation” value ([1]; EL4, 1 µM IBR) of the same compound?
Answer: 2.1

Question: What about the “Tau, EGFP-SD degradation” value ([1]; NIH/3T3, 0.01 µM IBR) of the same compound?
Answer: 0.5217

Question: What about the “Plateau, EGFP-SD degradation” value ([1]; NIH/3T3, 0.01 µM IBR) of the same compound?
Answer: 0.1206 and 0.12

Question: What about the “K, EGFP-SD degradation” value ([1]; NIH/3T3, 0.01 µM IBR) of the same compound?
Answer: 1.917

Question: And the “Tau, EGFP-SD degradation” value ([1]; NIH/3T3, 0.1 µM IBR)?
Answer: 0.4536

Question: And the “Plateau, EGFP-SD degradation” value ([1]; NIH/3T3, 0.1 µM IBR)?
Answer: 0.09879

Question: And the “K, EGFP-SD degradation” value ([1]; NIH/3T3, 0.1 µM IBR)?
Answer: 2.205

Question: And the “Tau, EGFP-SD degradation” value ([1]; NIH/3T3, 1 µM IBR)?
Answer: 0.4422

Question: What about the “Plateau, EGFP-SD degradation” value ([1]; NIH/3T3, 1 µM IBR) of the same compound?
Answer: 0.0887

Question: What about the “K, EGFP-SD degradation” value ([1]; NIH/3T3, 1 µM IBR) of the same compound?
Answer: 2.261

Question: What about the “Tau, EGFP-SD degradation” value ([1]; mESCs, 0.01 µM IBR) of the same compound?
Answer: 0.9013

Question: What about the “Plateau, EGFP-SD degradation” value ([1]; mESCs, 0.01 µM IBR) of the same compound?
Answer: 0.1599 and 0.16

Question: And the “K, EGFP-SD degradation” value ([1]; mESCs, 0.01 µM IBR)?
Answer: 1.11

Question: And the “Tau, EGFP-SD degradation” value ([1]; mESCs, 0.1 µM IBR)?
Answer: 0.8006

Question: And the “Plateau, EGFP-SD degradation” value ([1]; mESCs, 0.1 µM IBR)?
Answer: 0.1092

Question: And the “K, EGFP-SD degradation” value ([1]; mESCs, 0.1 µM IBR)?
Answer: 1.249

Question: And the “Tau, EGFP-SD degradation” value ([1]; mESCs, 1 µM IBR)?
Answer: 0.8069

Question: And the “Plateau, EGFP-SD degradation” value ([1]; mESCs, 1 µM IBR)?
Answer: 0.09822

Question: And the “K, EGFP-SD degradation” value ([1]; mESCs, 1 µM IBR)?
Answer: 1.239

Question: What about the “time after which EGFP-SD expression was minimal” value ([1]; mESCs, NIH/3T3, EL4) of the same compound?
Answer: 6 h

Question: And the “time to halve the amount of EGFP-SD” value [1, 10]?
Answer: 20 to 40 min

Question: And the “time to reduce EGFP-SD to 10%” value [1, 10]?
Answer: approximately 3 h

Question: And the MC-38 cell proliferation ([2]; Pdcd1+/+/CrbnI391V/I391V mice)?
Answer: comparable

Question: What about the “growth of MC-38 cells” value ([2]; Pdcd1SD/SD/CrbnI391V/I391V mice, oral administration of IBR) of the same compound?
Answer: suppressed proliferation for the entire period

Question: What about the “Bottom, EGFP-SD (EGFP/mCherry MFI)” value [3] of the same compound?
Answer: 0.01502

Question: And the DC50 [3]?
Answer: 70.7 pM

Question: And the “bottom vs top, EGFP-SD” value [3]?
Answer: 0.04

Question: And the “Bottom, EGFP-SD (EGFP/mCherry MFI)” value ([4]; B6J-S1 mESCs)?
Answer: 0.03557

Question: What about the “bottom vs top, EGFP-SD” value ([4]; B6J-S1 mESCs) of the same compound?
Answer: 0.10

Question: What about the “Bottom, EGFP-SD (EGFP/mCherry MFI)” value ([4]; Crbn+/+ mESCs (mCRBN)) of the same compound?
Answer: 0.04584

Question: And the “bottom vs top, EGFP-SD” value ([4]; Crbn+/+ mESCs (mCRBN))?
Answer: 0.15

Question: What about the “Bottom, EGFP-SD (EGFP/mCherry MFI)” value ([4]; CrbnI391V/I391V mESCs (hCRBN)) of the same compound?
Answer: 0.007275

Question: What about the “bottom vs top, EGFP-SD” value ([4]; CrbnI391V/I391V mESCs (hCRBN)) of the same compound?
Answer: 0.03

Question: What about the DC50 ([4]; B6J-S1 mESCs) of the same compound?
Answer: 815 pM

Question: What about the DC50 ([4]; Crbn+/+ mESCs (mCRBN)) of the same compound?
Answer: 2170 pM

Question: And the DC50 ([4]; CrbnI391V/I391V mESCs (hCRBN))?
Answer: 65.4 pM

Question: What about the “downregulation of 11 EGFP-bound candidate proteins” value ([5]; exogenously expressed in mESCs) of the same compound?
Answer: none of them were downregulated by IBR

Question: And the “number of proteins with reduced expression” value ([5]; wild-type mESCs, proteome assay, data not shown)?
Answer: 17

Question: And the DC50 ([6]; B6J-S1 mESCs, Figure 5B)?
Answer: 21000 pM

Question: What about the DC50 ([6]; CrbnI391V/I391V mESCs, Figure 5E) of the same compound?
Answer: 834 pM

Question: And the “bottom vs top, SD-EGFP” value [7]?
Answer: 0.186 and 0.153 and 0.146 and 0.15 and 0.19

Question: What about the “level to which SD-EGFP was suppressed” value [7] of the same compound?
Answer: 20%

Question: With `Nc1cccc2c1C(=O)N(C1CCC(=O)NC1=O)C2=O` (centres unmarked) [POM, pomalidomide] as the compound, how does the “blood-brain barrier (BBB) passage” value [8] read?
Answer: passes through the BBB

Question: What about the “Bottom, PD-1 (FITC)” value ([9]; SALL4 tag, surface PD-1, no reagent = 1) of the same compound?
Answer: 0.9333

Question: And the “effect on protein levels” value ([9]; Sall4 tag)?
Answer: did not reduce protein levels
